Experimental data: patent US9006426B2, “Squaric acid derivatives as inhibitors of the nicotinamide” (Topotarget A/S, priority 2008, dated 2015)

What was measured:
A2780 cells [1] = assay: In vitro cell proliferation assay (WST-1 assay); assay type: cell-based; details: Homo sapiens, total incubation time 72 h, WST-1 reagent
Description: In Vitro Cell Proliferation Assay (WST-1 Assay)
A2780 cells were seeded in 96-well plates at 3×10^3 cells/well in 100 μL of culture medium, 8 wells were left empty for media only controls.
After 24 h the compound titrations were performed, in a separate dilution plate, by serially diluting the compounds of general formula (I) in culture medium. A 100 μL of each dilution was added to the plated cells, this was done in triplicate, and controls (e.g. DMSO and blanks) were included. The plates were incubated for 24 h at 37° C. in a CO2 incubator. The compound titrations were repeated in a separate dilution plate after 24 h. The media plus compound from the assay plates were then aspirated. A 100 μL of media was then added to all wells, followed by 100 μL of each compound dilution. The plates were incubated for a further 48 h at 37° C. in a CO2 incubator (total incubation time 72 h). The number of viable cells was then assessed using Cell Proliferation Reagent WST-1. 10 μL of WST-1 reagent added to each well and incubated for one to four hours at 37° C. in CO2 incubator. The absorbance was measured (450 nm/690 nm).
The activity of compounds of general formula (I) in reducing the number of viable cells was calculated as: % activity=[(S^c−B)/(S^o−B)]×100
S^c denotes signal measured in the presence of test compound, S^o denotes signal detected in the absence of compound, and B denotes background signal, measured in blank wells containing medium only. Analyse data using GraphPad Prism.
Results can be seen in Table 1, wherein IC50 is the concentration giving 50% activity.

A2780 cells [2] = assay: In vitro cell proliferation assay (SRB assay); assay type: cell-based; details: Homo sapiens, 72 h incubation, SRB staining
Description: In Vitro Cell Proliferation Assay (SRB Assay)
A2780 cells were seeded in 96-well plates at 2000 cells/well in 100 μL of culture medium, 4 wells were left empty for media only controls.
After 24 h the compound titrations were performed, in a separate dilution plate, by serially diluting the compounds of general formula (I) in culture medium. A 100 μL of each dilution was added to the plated cells, this was done in quadruplicate, and controls (e.g. DMSO and blanks) were included. The plates were incubated for 72 h at 37° C. in a CO2 incubator. 50 μL cold 50% trichloroacetic acid was then added to each well. After 1 h the supernatant was discarded and the wells were washed 5 times with tap water and dried at room temperature. […] Bound stain was subsequently solubilized by addition of 200 μL 10 mM Tris pH 10.5 to each well, and the plates were shaken for at least 30 minutes, and the absorbance read on an automated plate reader at 515 nm. Using the nine absorbance measurements [time zero, (Tz), control growth, (C), and test growth in the presence of drug at the seven concentration levels (Ti)], the percentage growth is calculated at each of the drug concentrations levels after averaging the quadruplet wells. Percentage growth inhibition is calculated as: [(Ti−Tz)/(C−Tz)]×100 for concentrations for which Ti>/=Tz [(Ti−Tz)/Tz]×100 for concentrations for which Ti<Tz. […]

| Structure (SMILES) | IC50 (A2780 cells [1]) | IC50 (A2780 cells [2]) |
| --- | --- | --- |
| CCOP(=O)(CCCCCCNc1c(Nc2ccncc2)c(=O)c1=O)NC1CCCCC1 (stereo not drawn) [Compound 1068, Ethyl N-cyclohexyl-P-(6-(3,4-dioxo-2-(pyridin-4-ylamino)cyclobut-1-enylamino)hexyl)phosphonimidate] | 0.18 nM |  |
| CN(OCc1ccccc1)S(=O)(=O)CCCCCCNc1c(Nc2ccncc2)c(=O)c1=O [Compound 1076, N-(benzyloxy)-6-(3,4-dioxo-2-(pyridin-4-ylamino)cyclobut-1-enylamino)-N-methylhexane-1-sulfonamide] | 0.25 nM |  |
| O=c1c(NCCCCCCS(=O)(=O)N(CCN2CCOCC2)OCc2ccccc2)c(Nc2ccncc2)c1=O [Compound 1077, N-(benzyloxy)-6-(3,4-dioxo-2-(pyridin-4-ylamino)cyclobut-1-enylamino)-N-(2-morpholinoethyl)hexane-1-sulfonamide] | 0.066 nM |  |
| O=c1c(NCCCCCS(=O)(=O)N(OCCN2CCOCC2)C2CCCC2)c(Nc2ccncc2)c1=O [Compound 1078, N-cyclopentyl-6-(3,4-dioxo-2-(pyridin-4-ylamino)cyclobut-1-enylamino)-N-(2-morpholinoethoxy)pentane-1-sulfonamide] | 0.42 nM |  |
| O=c1c(NCCCCCCS(=O)(=O)N(CCN2CCOCC2)c2ccc(Cl)cc2)c(Nc2ccncc2)c1=O [Compound 1080, N-(4-chlorophenyl)-6-(3,4-dioxo-2-(pyridin-4-ylamino)cyclobut-1-enylamino)-N-(2-morpholinoethyl)hexane-1-sulfonamide] | 0.66 nM |  |
| O=c1c(NCCCCCCOc2ccc(Cl)cc2)c(Nc2ccncc2)c1=O [SQ-7B, 3-(6-(4-chlorophenoxy)hexylamino)-4-(pyridine-4-ylamino)-cyclobut-3-ene-1,2-dione] |  | 40 nM |
